Tests used:
Assay in all cases: Test C postemergence
Assay type in all cases: in vivo
[1] = test system: morningglory (Ipomoea coccinea); conditions: Ipomoea, post-emergence, 336 h, Postemergence, scale 0 to 100, read-out: Plant response rating, Morningglory
[2] = test system: large (Lg) crabgrass (Digitaria sanguinalis); conditions: Digitaria sanguinalis, post-emergence, 336 h, Postemergence, scale 0 to 100, read-out: Plant response rating, Crabgrass, Large
[3] = test system: galium (catchweed bedstraw, Galium aparine); conditions: Galium, post-emergence, 336 h, Postemergence, scale 0 to 100, read-out: Plant response rating, Galium
[4] = test system: blackgrass (Alopecurus myosuroides); conditions: Alopecurus myosuroides, post-emergence, 336 h, Postemergence, scale 0 to 100, read-out: Plant response rating, Blackgrass
[5] = test system: johnsongrass (Sorghum halepense); conditions: Sorghum halepense, post-emergence, 336 h, Postemergence, scale 0 to 100, read-out: Plant response rating, Johnsongrass
[6] = test system: pigweed (Amaranthus retroflexus); conditions: Amaranthus retroflexus, post-emergence, 336 h, Postemergence, scale 0 to 100, read-out: Plant response rating, Pigweed
[7] = test system: velvetleaf (Abutilon theophrasti); conditions: Abutilon theophrasti, post-emergence, Postemergence, scale 0 to 100, read-out: Plant response rating, Velvetleaf
kochia (Kochia scoparia) = conditions: Bassia scoparia, post-emergence, Postemergence, scale 0 to 100, read-out: Plant response rating, Kochia
[8] = test system: waterhemp (common waterhemp, Amaranthus rudis); conditions: Amaranthus tuberculatus, post-emergence, Postemergence, scale 0 to 100, read-out: Plant response rating, Waterhemp
[9] = test system: chickweed (common chickweed, Stellaria media); conditions: Stellaria media, post-emergence, Postemergence, scale 0 to 100, read-out: Plant response rating, Chickweed
[10] = test system: giant foxtail (Setaria faberii); conditions: Setaria faberi, post-emergence, 336 h, Postemergence, scale 0 to 100, read-out: Plant response rating, Foxtail, Giant
[11] = test system: ragweed (common ragweed, Ambrosia elatior); conditions: Ambrosia artemisiifolia, post-emergence, 336 h, Postemergence, scale 0 to 100, read-out: Plant response rating, Ragweed
[12] = test system: lambsquarters (Chenopodium album); conditions: Chenopodium album, post-emergence, 336 h, Postemergence, scale 0 to 100, read-out: Plant response rating, Lambsquarters
[13] = test system: winter wheat (Triticum aestivum); conditions: Triticum aestivum, post-emergence, 336 h, Postemergence, scale 0 to 100, read-out: Plant response rating, Wheat
[14] = test system: oilseed rape (Brassica napus); conditions: Brassica napus, post-emergence, Postemergence, scale 0 to 100, read-out: Plant response rating, Oilseed Rape
[15] = test system: yellow nutsedge (Cyperus esculentus); conditions: Cyperus, post-emergence, 336 h, Postemergence, scale 0 to 100, read-out: Plant response rating, Nutsedge, Yellow
[16] = test system: barnyardgrass (Echinochloa crus-galli); conditions: Echinochloa crus-galli, post-emergence, Postemergence, scale 0 to 100, read-out: Plant response rating, Barnyardgrass
soybean (Glycine max) = conditions: Glycine max, post-emergence, Postemergence, scale 0 to 100, read-out: Plant response rating, Soybean
corn (Zea mays) = conditions: Zea mays, post-emergence, 336 h, Postemergence, scale 0 to 100

N#Cc1cccc(Oc2ncc(Cl)cn2)c1Oc1ccc(Cl)cn1 [Compound 16, 2-[(5-chloro-2-pyridinyl)oxy]-3-[(5-chloro-2-pyrimidinyl)oxy]benzonitrile]
60%: pest or weed control at 16 g/ha ([3]; 16 g ai/ha) | pest or weed control at 62 g/ha ([7]; 62 g ai/ha) | pest or weed control at 31 g/ha ([9]; 31 g ai/ha) | pest or weed control at 31 g/ha ([11]; 31 g ai/ha)
15%: pest or weed control at 31 g/ha ([2]; 31 g ai/ha) | pest or weed control at 62 g/ha ([2]; 62 g ai/ha) | pest or weed control at 31 g/ha ([10]; 31 g ai/ha) | pest or weed control at 125 g/ha ([15]; 125 g ai/ha) | pest or weed control at 31 g/ha ([16]; 31 g ai/ha) | pest or weed control at 62 g/ha ([16]; 62 g ai/ha) | Corn plant response rating (crop injury, 0 = no effect, 100 = complete kill) at 125 g/ha (corn (Zea mays); 125 g ai/ha)
100%: pest or weed control at 125 g/ha ([6]; 125 g ai/ha)
35%: pest or weed control at 125 g/ha ([10]; 125 g ai/ha)
45%: plant injury at 62 g/ha (soybean (Glycine max); 62 g ai/ha)
80%: pest or weed control at 31 g/ha ([6]; 31 g ai/ha) | pest or weed control at 62 g/ha ([9]; 62 g ai/ha) | pest or weed control at 125 g/ha ([9]; 125 g ai/ha) | pest or weed control at 31 g/ha ([12]; 31 g ai/ha) | plant injury at 62 g/ha ([14]; 62 g ai/ha)
70%: pest or weed control at 31 g/ha ([3]; 31 g ai/ha) | pest or weed control at 62 g/ha ([3]; 62 g ai/ha) | pest or weed control at 125 g/ha ([7]; 125 g ai/ha) | pest or weed control at 125 g/ha ([11]; 125 g ai/ha) | plant injury at 31 g/ha ([14]; 31 g ai/ha) | plant injury at 31 g/ha (soybean (Glycine max); 31 g ai/ha)
10%: pest or weed control at 16 g/ha ([2]; 16 g ai/ha) | pest or weed control at 125 g/ha ([4]; 125 g ai/ha) | pest or weed control at 62 g/ha ([5]; 62 g ai/ha) | pest or weed control at 125 g/ha ([5]; 125 g ai/ha) | pest or weed control at 16 g/ha ([10]; 16 g ai/ha) | pest or weed control at 31 g/ha ([15]; 31 g ai/ha) | pest or weed control at 62 g/ha ([15]; 62 g ai/ha) | pest or weed control at 16 g/ha ([16]; 16 g ai/ha) | Corn plant response rating (crop injury, 0 = no effect, 100 = complete kill) at 16 g/ha (corn (Zea mays); 16 g ai/ha) | Corn plant response rating (crop injury, 0 = no effect, 100 = complete kill) at 62 g/ha (corn (Zea mays); 62 g ai/ha)
20%: pest or weed control at 125 g/ha ([2]; 125 g ai/ha) | pest or weed control at 62 g/ha ([10]; 62 g ai/ha) | pest or weed control at 125 g/ha ([16]; 125 g ai/ha) | Corn plant response rating (crop injury, 0 = no effect, 100 = complete kill) at 31 g/ha (corn (Zea mays); 31 g ai/ha)
25%: pest or weed control at 16 g/ha ([9]; 16 g ai/ha)
75%: pest or weed control at 62 g/ha ([12]; 62 g ai/ha)
90%: pest or weed control at 31 g/ha ([1]; 31 g ai/ha) | pest or weed control at 62 g/ha ([1]; 62 g ai/ha) | pest or weed control at 16 g/ha (kochia (Kochia scoparia); 16 g ai/ha) | pest or weed control at 31 g/ha (kochia (Kochia scoparia); 31 g ai/ha) | pest or weed control at 62 g/ha (kochia (Kochia scoparia); 62 g ai/ha) | pest or weed control at 31 g/ha ([8]; 31 g ai/ha) | pest or weed control at 125 g/ha ([8]; 125 g ai/ha) | pest or weed control at 125 g/ha ([12]; 125 g ai/ha)
85%: pest or weed control at 62 g/ha ([6]; 62 g ai/ha)
0%: plant injury at 31 g/ha ([13]; 31 g ai/ha) | plant injury at 125 g/ha ([13]; 125 g ai/ha)
55%: plant injury at 125 g/ha (soybean (Glycine max); 125 g ai/ha)
65%: pest or weed control at 31 g/ha ([7]; 31 g ai/ha) | pest or weed control at 16 g/ha ([12]; 16 g ai/ha)
50%: pest or weed control at 62 g/ha ([11]; 62 g ai/ha) | plant injury at 125 g/ha ([14]; 125 g ai/ha)
95%: pest or weed control at 125 g/ha ([1]; 125 g ai/ha) | pest or weed control at 125 g/ha ([3]; 125 g ai/ha) | pest or weed control at 125 g/ha (kochia (Kochia scoparia); 125 g ai/ha) | pest or weed control at 62 g/ha ([8]; 62 g ai/ha)
5%: pest or weed control at 16 g/ha ([4]; 16 g ai/ha) | pest or weed control at 31 g/ha ([4]; 31 g ai/ha) | pest or weed control at 62 g/ha ([4]; 62 g ai/ha) | pest or weed control at 16 g/ha ([5]; 16 g ai/ha) | pest or weed control at 31 g/ha ([5]; 31 g ai/ha) | plant injury at 62 g/ha ([13]; 62 g ai/ha)

— patent US20170190671A1, “BIS(ARYL)CATECHOL DERIVATIVES AS HERBICIDES” (E I DU PONT DE NEMOURS AND COMPANY, priority 2014, published 2017)
